Test results taken from patent publication US7507335B2, “Dendrimer fluid purification agent and article” (KWG Technology, priority 2003, dated 2009).
Read-outs that look alike come from different tables or passages of the source.

Key:
Pseudomonas aerugentoas = experiment: Paper disc zone of inhibition test (Example Two); assay type: cell-based; details: 6-millimeter disc, 10 microliters, 24 hours
Protocol: (§1) A second sample of a dendrimer silver complex was tested against various concentrations of silver nitrate against both E. coli and Pseudomonas aerugentoas. The experiment was performed as follows: • 1. Prepare an inoculum of the test organisms by streaking the entire surface of agar plates, by the standard method for colony isolation, with ether E. coli or pseudomonas aerugentoas. The plates were incubated at 370 C for approximately 18 hours. • 2. Harvest all the growth on the test organism plates by flooding the plats with 9.0 ml of sterile distilled water per plate. Wash the harvested biomass by centrifugation for 1 hour at 3000 rpm, discarding the supernatant fluid, and resuspending in 9.0 ml of sterile distilled water. Resuspend harvested cell by vortex agitation for 1 minute. • 3. Inoculate test plates with 0.2 ml with the test organism prepare as described above. • 4. Place sterile 6-millimeter blank paper Discs on test plates and saturate with 10 microliters of the test substances. • 5. […]

E. coli = assay type: cell-based; details: 6-millimeter disc, 10 microliters, 24 hours
Protocol: as §1

Compound: O=[N+]([O-])[O-].[Ag+] [Silver Nitrate]
- Pseudomonas (diameter of inhibitory zone) (Pseudomonas aerugentoas; 0.5% Silver Nitrate): 12 millimeters
- Pseudomonas (diameter of inhibitory zone) (Pseudomonas aerugentoas; 1.0% Silver Nitrate): 9 millimeters
- Pseudomonas (diameter of inhibitory zone) (Pseudomonas aerugentoas; 2.5% Silver Nitrate): 6 millimeters
- Pseudomonas (diameter of inhibitory zone) (Pseudomonas aerugentoas; 5.0% Silver Nitrate): 6 millimeters
- Pseudomonas (diameter of inhibitory zone) (Pseudomonas aerugentoas; 7.5% Silver Nitrate): 7 millimeters
- Pseudomonas (diameter of inhibitory zone) (Pseudomonas aerugentoas; 10.0% Silver Nitrate): 11 millimeters
- E. Coli (diameter of inhibitory zone) (E. coli; 0.5% Silver Nitrate): 6 millimeters
- E. Coli (diameter of inhibitory zone) (E. coli; 1.0% Silver Nitrate): 6 millimeters
- E. Coli (diameter of inhibitory zone) (E. coli; 2.5% Silver Nitrate): 6 millimeters
- E. Coli (diameter of inhibitory zone) (E. coli; 5.0% Silver Nitrate): 6 millimeters
- E. Coli (diameter of inhibitory zone) (E. coli; 7.5% Silver Nitrate): 6 millimeters
- E. Coli (diameter of inhibitory zone) (E. coli; 10.0% Silver Nitrate): 6 millimeters
